# Laboratory results from patent publication EP0213490A2, “Colour-photographic recording material” (Agfa-Gevaert AG, priority 1985, dated 1987).
# Experiments:
# [1] = Solubility determination in ethyl acetate (parts by weight of solvent needed to dissolve one part of yellow dye); type: physicochemical; details: Ethylacetat, 60°C
# Protocol: Von den erfindungsgemäßen Verbindungen II-1, 11-5 und III-1 sowie von den strukturanalogen Vergleichsverbindungen V-1, V-2, V-3, V-4, V-5 und V-6 wurden deren Löslichkeit in Ethylacetat bei 60°C bestimmt. Hierzu wurde ermittelt, wieviele Gewichtsteile Lösungsmittel zum Lösen eines Gewichtsteils Gelbfarbstoff erforderlich sind. Die miteinander zu vergleichenden Farbstoffe unterschieden sich jeweils ausschließlich in der Substitution des Phenylazorestes
# [2] = Dissolving the mask coupler in tricresyl phosphate/ethyl acetate for dispersion preparation; type: physicochemical; details: 55°C
# Protocol: Von der erfindungsgemäßen Verbindung 11-1 wurde die Dispersion la und von der betreffenden Vergleichsverbindung V-2 wurde die Dispersion lb jeweils nach der nachfolgend beschriebenen Vorschrift hergestellt. 100 g Maskenkuppler werden in einer Abmischung aus 100 g Trikresylphosphat und 300 g Ethylacetat bei 55^*C gelöst. […] Die Lösung wird in 1 kg einer 7,5 %igen wäßrigen Gelatine, die ebenfalls auf 55°C erhitzt ist und mit 10 g Alkanol XC versehen war, mit einem hochtourigen Mischer einemulgiert. Anschließend wurde das niedrig siedende Lösungsmittel im Vakuum entfernt und die zurückbleibende Dispersion bei 6°C erstarrt.
# Gemäß der im Beispiel 2 beschriebenen allgemeinen Vorschrift wurde aus der erfindungsgemäßen Verbindung 11-5 die Dispersion 2a und aus der betreffenden Vergleichsverbindung V-4 die Dispersion 2b hergestellt. (Die Vergleichsverbindung V-4 mußte, damit sie in Lösung ging, in der hydrophoben Dispersionsphase auf 70°C erhitzt werden).
SMILES,1 Gew.-Teil Verbindung löst sich in X Gew.-Teilen Ethyl-acetat [1],Dissolution of 100 g Maskenkuppler in 100 g Trikresylphosphat and 300 g Ethylacetat [2]
CCCCCCCCCCCCCC(=O)Nc1ccc(Cl)c(NC2=NN(c3c(Cl)cc(Cl)cc3Cl)C(=O)C2N=Nc2ccc(OC(C)C)c(OC(C)C)c2)c1 (centres unmarked) [II-1],"2,5 Gew.-Teilen Ethyl-acetat",–
CCCCCCCCCCCCCC(=O)Nc1ccc(Cl)c(NC2=NN(c3c(Cl)cc(Cl)cc3Cl)C(=O)C2N=Nc2ccc(OC)c(OC)c2)c1 (centres unmarked) [V-1],15 Gew.-Teilen Ethyl-acetat,–
CCCCCCCCCCCCCC(=O)Nc1ccc(Cl)c(NC2=NN(c3c(Cl)cc(Cl)cc3Cl)C(=O)C2N=Nc2ccc(OCC)c(OCC)c2)c1 (centres unmarked) [V-2],19 Gew.-Teilen Ethyl-acetat,"mußte neben Ethylacetat noch soviel Tetrahydrofuran zugesetzt werden, daß sie bei 55 °C in Lösung ging"
CCCCCCCCCCCCCC(=O)Nc1ccc(Cl)c(NC2=NN(c3c(Cl)cc(Cl)cc3Cl)C(=O)C2N=Nc2ccc(OCCC)c(OCCC)c2)c1 (centres unmarked) [V-3],23 Gew.-Teilen Ethyl-acetat,–
